Experimental data from patent US12612387B2, “RAS inhibitors and methods of using the same” (Jazz Pharmaceuticals Ireland Limited, priority 2020, dated 2026).

How the values were obtained:
K-RAS G12C = target: T1, K-RAS G12C (Homo sapiens, UniProt P01116, G12C); test: Compound depletion assay, K-RAS G12C; assay type: binding; details: G12C protein 20 μM, compound 8 μM, 25° C.
T1 construct: His tag; purchased Stratech
How it was run: (§1)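 His-tagged K-RAS (20 μM) in 20 mM HEPES pH 7.5, 150 mM NaCl, 1 mM MgCl2 incubated with 8 μM compound (final) at 25 °C with agitation. At 0, 30, 180, 360, 1440 min, samples were acid/acetonitrile-quenched and remaining free compound quantified by LC-MS/MS against propranolol, as percent of time zero.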

K-RAS G12D = target: T2, K-RAS G12D (Homo sapiens, UniProt P01116, G12D); test: Compound depletion assay, K-RAS G12D; assay type: binding; details: G12D protein 20 μM, compound 8 μM, 25° C.
T2 construct: His tag; purchased Stratech
How it was run: as §1

T2 sequence (P01116 1-188 isoform P01116-2 G12D): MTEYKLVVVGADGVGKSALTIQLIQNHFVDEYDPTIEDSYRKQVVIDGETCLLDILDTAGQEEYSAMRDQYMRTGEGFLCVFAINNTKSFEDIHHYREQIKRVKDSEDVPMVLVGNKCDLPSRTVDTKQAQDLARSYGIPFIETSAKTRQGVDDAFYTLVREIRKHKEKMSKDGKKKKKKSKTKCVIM
T1 sequence (P01116 1-188 isoform P01116-2 G12C): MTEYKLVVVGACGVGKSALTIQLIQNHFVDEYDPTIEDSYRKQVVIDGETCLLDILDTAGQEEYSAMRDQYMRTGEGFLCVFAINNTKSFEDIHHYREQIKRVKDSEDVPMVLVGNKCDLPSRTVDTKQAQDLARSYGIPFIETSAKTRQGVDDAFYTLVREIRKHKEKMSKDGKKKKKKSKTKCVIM

| 30 min Category (compound remaining at timepoint) (K-RAS G12C) | 3 hr Category (compound remaining at timepoint) (K-RAS G12C) | 6 hr Category (compound remaining at timepoint) (K-RAS G12C) | 30 min Category (compound remaining at timepoint) (K-RAS G12D) | 3 hr Category (compound remaining at timepoint) (K-RAS G12D) | 6 hr Category (compound remaining at timepoint) (K-RAS G12D) | 24 hr Category (compound remaining at timepoint) (K-RAS G12C; 24 hr) | 24 hr Category (compound remaining at timepoint) (K-RAS G12D; 24 hr) | SMILES |
| --- | --- | --- | --- | --- | --- | --- | --- | --- |
| C (≤30% compound remaining at timepoint) | C (≤30% compound remaining at timepoint) | C (≤30% compound remaining at timepoint) | A (≥70% compound remaining at timepoint) | A (≥70% compound remaining at timepoint) | A (≥70% compound remaining at timepoint) | – | – | C=CC(=O)N1CCN(c2cc(C(=O)Nc3cc(O)cc4ccccc34)nc(OCC3CCCN(C)C3)n2)C[C@@H]1CC#N (stereo partly drawn) [Example 50, 6-[(3S)-3-(cyanomethyl)-4-prop-2-enoyl-piperazin-1-yl]-N-(3-hydroxy-1-naphthyl)-2-[(1-methyl-3-piperidyl)methoxy]pyrimidine-4-carboxamide] |
| – | A (≥70% compound remaining at timepoint) | – | – | A (≥70% compound remaining at timepoint) | – | A (≥70% compound remaining at timepoint) | A (≥70% compound remaining at timepoint) | C=CC(=O)N1CCN(c2cc(C(=O)Nc3cccc(O)c3)nc(OC[C@@H]3CCCN3C)n2)CC1 [Example 04, N-(3-hydroxyphenyl)-2-[[(2S)-1-methylpyrrolidin-2-yl]methoxy]-6-(4-prop-2-enoylpiperazin-1-yl)pyrimidine-4-carboxamide] |
| A (≥70% compound remaining at timepoint) | A (≥70% compound remaining at timepoint) | A (≥70% compound remaining at timepoint) | A (≥70% compound remaining at timepoint) | A (≥70% compound remaining at timepoint) | A (≥70% compound remaining at timepoint) | – | – | C=CC(=O)N1CCN(c2cc(C(=O)Nc3cc(O)cc4ccccc34)nc(-c3ccc4cnn(C)c4c3)n2)C[C@@H]1CC#N [Example 32, 6-[(3S)-3-(cyanomethyl)-4-prop-2-enoyl-piperazin-1-yl]-N-(3-hydroxy-1-naphthyl)-2-(1-methylindazol-6-yl)pyrimidine-4-carboxamide] |

| SMILES | 30 min Category (compound remaining at timepoint) (K-RAS G12C) | 3 hr Category (compound remaining at timepoint) (K-RAS G12C) | 6 hr Category (compound remaining at timepoint) (K-RAS G12C) | 30 min Category (compound remaining at timepoint) (K-RAS G12D) | 3 hr Category (compound remaining at timepoint) (K-RAS G12D) | 6 hr Category (compound remaining at timepoint) (K-RAS G12D) | 24 hr Category (compound remaining at timepoint) (K-RAS G12C; 24 hr) | 24 hr Category (compound remaining at timepoint) (K-RAS G12D; 24 hr) |
| --- | --- | --- | --- | --- | --- | --- | --- | --- |
| C=CC(=O)N1CCN(c2cc(C(=O)Nc3cc(O)cc4ccccc34)nc(NCC3CCCCN3C)n2)C[C@@H]1CC#N (stereo partly drawn) [Example 49, 6-[(3S)-3-(cyanomethyl)-4-prop-2-enoyl-piperazin-1-yl]-N-(3-hydroxy-1-naphthyl)-2-[(1-methyl-2-piperidyl)methylamino]pyrimidine-4-carboxamide] | B (30%-70% compound remaining at timepoint) | C (≤30% compound remaining at timepoint) | C (≤30% compound remaining at timepoint) | A (≥70% compound remaining at timepoint) | A (≥70% compound remaining at timepoint) | A (≥70% compound remaining at timepoint) | – | – |
